Measurements published in ChEMBL document CHEMBL3217661, “Selective inhibition of E. coli 1-deoxy-D-xylulose-5-phosphate synthase by acetylphosphonates()” (Medchemcomm, 2012).
pKi: −log10 of the molar value.

Legend:
[1] = Inhibition of ThDP-dependent pyruvate dehydrogenase E1 subunit in porcine heart using pyruvate as substrate by spectrophotometric coupled assay; set-up: species or system Sus scrofa
[2] = Inhibition of ThDP-dependent Saccharomyces cerevisiae transketolase by spectrophotometric coupled assay
[3] = target: T1, 1-deoxy-D-xylulose-5-phosphate synthase (Escherichia coli (strain K12), UniProt P77488); test: Competitive inhibition of ThDP-dependent Escherichia coli DXP synthase using pyruvate as substrate assessed as NADPH consumption by spectrophotometric coupled assay
T1 sequence (P77488 whole entry): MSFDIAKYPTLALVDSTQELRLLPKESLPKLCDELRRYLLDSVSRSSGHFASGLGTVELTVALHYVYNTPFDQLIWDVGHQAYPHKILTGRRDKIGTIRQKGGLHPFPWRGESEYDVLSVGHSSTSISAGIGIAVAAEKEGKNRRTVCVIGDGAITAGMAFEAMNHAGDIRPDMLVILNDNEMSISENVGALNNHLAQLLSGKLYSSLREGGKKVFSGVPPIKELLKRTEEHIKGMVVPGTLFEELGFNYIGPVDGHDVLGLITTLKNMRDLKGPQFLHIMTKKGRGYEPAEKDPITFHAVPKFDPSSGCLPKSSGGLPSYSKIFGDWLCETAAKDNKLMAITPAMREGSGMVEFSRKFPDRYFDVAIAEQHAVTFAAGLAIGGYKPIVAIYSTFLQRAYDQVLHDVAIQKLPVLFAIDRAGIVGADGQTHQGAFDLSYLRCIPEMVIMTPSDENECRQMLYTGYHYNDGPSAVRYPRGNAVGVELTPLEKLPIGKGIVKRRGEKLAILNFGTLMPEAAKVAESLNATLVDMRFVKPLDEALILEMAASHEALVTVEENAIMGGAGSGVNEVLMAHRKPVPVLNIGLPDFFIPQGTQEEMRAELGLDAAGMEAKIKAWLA

[4] = Selectivity ratio of Ki for pyruvate dehydrogenase E1 subunit in porcine heart to Ki for Escherichia coli DXP synthase

SMILES	pKi [1]	pKi [2]	pKi [3]	Ratio Ki [4]
CCCCC(=O)P(=O)(O)OC	< 3.00	< 3.00	< 3.00	–
CCCC(=O)P(=O)(O)OC	< 3.00	< 3.00	< 3.00	–
CCCCOP(=O)(O)C(C)=O	3.47	< 3.00	5.25	60
CCC(=O)P(=O)(O)OC	< 3.00	< 3.00	3.59	–
CCOP(=O)(O)C(C)=O	4.33	< 3.00	5.17	–
COP(=O)(O)C(C)=O	4.52	< 3.00	6.02	31
